# Target: T1, recombinant 15-PGDH (Homo sapiens, UniProt P15428)
# T1 sequence (P15428 1-266): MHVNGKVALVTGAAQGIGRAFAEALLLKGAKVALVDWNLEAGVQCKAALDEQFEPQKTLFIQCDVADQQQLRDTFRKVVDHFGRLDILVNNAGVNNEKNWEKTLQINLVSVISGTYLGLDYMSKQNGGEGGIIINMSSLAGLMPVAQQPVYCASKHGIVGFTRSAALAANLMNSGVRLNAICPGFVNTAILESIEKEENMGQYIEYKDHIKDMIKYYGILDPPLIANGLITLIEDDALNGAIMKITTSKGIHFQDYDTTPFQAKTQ
# Type: biochemical
# Settings: recombinant human 15-PGDH, in vitro; read-out: PDGH Assay-IC50
# Excerpt: The Recombinant 15-PGDH is human unless otherwise specified.
row,SMILES,IC50 [nM]
1,COCCC[S+]([O-])c1sc2nc(-c3cnc4c(cnn4CCO)c3)cc(C3CC3)c2c1N (centres unmarked) [Example 302],2.5 to 10
2,COCC[S@+]([O-])c1sc2nc(-c3cncnc3)cc(C(F)(F)F)c2c1N [Example 199],≥ 10
3,Nc1c([S+]([O-])C2CCC2)sc2nc(-c3cncnc3)cc(-c3ccn(C4CC4)n3)c12 (centres unmarked) [Example 414],< 2.5
4,Nc1c([S+]([O-])C2CCC2)sc2nc(-c3cnc(NCCO)nc3)cc(-c3ncccc3F)c12 (centres unmarked) [Example 122],< 2.5
5,Cn1nccc1-c1cc(-c2cnc3c(c2)ncn3C)nc2sc([S+]([O-])C3CCC3)c(N)c12 (centres unmarked) [Example 383],< 2.5
6,COCC[S@+]([O-])c1sc2nc(-c3cnc4nn(C)nc4c3)cc(-c3ccnn3C)c2c1N [Example 382],≥ 10
7,Cn1nccc1-c1cc(-c2cnc(O)nc2)nc2sc([S+]([O-])C3CCC3)c(N)c12 (centres unmarked) [Example 223],< 2.5
8,COCCC[S+]([O-])c1sc2nc(-c3cncnc3)cc(C)c2c1N (centres unmarked) [Example 163],< 2.5
9,Cc1cc(-c2cc(-c3cncnc3)nc3sc([S+]([O-])C4CCC4)c(N)c23)n(C)n1 (centres unmarked) [Example 356],< 2.5
10,Nc1c([S+]([O-])C2CCC2)sc2nc(-c3cccnc3)nc(C3CC3)c12 (centres unmarked) [Example 189],< 2.5
11,COCC[S@@+]([O-])c1sc2nc(-c3cnc(NCCO)nc3)cc(C3CCC3)c2c1N [Example 349],< 2.5
12,COCC[S@+]([O-])c1sc2nc(-c3cncnc3)cc(-c3ncccn3)c2c1N [Example 231],≥ 10
13,Nc1c([S+]([O-])C2CCC2)sc2nc(-c3ccc(NCCO)nc3)cc(-c3ccccc3)c12 (centres unmarked) [Example 63],< 2.5
14,COCC[S+]([O-])c1sc2nc(-c3cnc(NCCO)nc3)cc(C(F)(F)F)c2c1N (centres unmarked) [Example 140],2.5 to 10
15,Cn1ccc(-c2cc(-c3cncnc3)nc3sc([S+]([O-])C4CCC4)c(N)c23)n1 (centres unmarked) [Example 280],< 2.5
16,Cn1nccc1-c1cc(-c2cnc(NCCO)nc2)nc2sc([S@@+]([O-])C3CCC3)c(N)c12 [Example 314],≥ 10
17,Nc1c([S+]([O-])C2CCC2)sc2nc(-c3ccc(=O)[nH]c3)cc(-c3ccc(C4COC4)cc3)c12 (centres unmarked) [Example 174],2.5 to 10
18,CC(C)(C)[S+]([O-])c1sc2nc(-c3cnc(NCCO)nc3)cc(C3CCC3)c2c1N (centres unmarked) [Example 353],2.5 to 10
19,COCCC[S@+]([O-])c1sc2nc(-c3cnc4nn(C)cc4c3)cc(C3CCC3)c2c1N [Example 262],≥ 10
20,COCC[S@+]([O-])c1sc2nc(-c3cnc(N)nc3)cc(-c3ccccc3)c2c1N [Example 88],≥ 10
21,COCCC[S+]([O-])c1sc2nc(-c3cncnc3)cc(-c3cccnn3)c2c1N (centres unmarked) [Example 236],< 2.5

row,SMILES,IC50 [nM]
1,Cn1cnc(-c2cc(-c3cncnc3)nc3sc([S@+]([O-])C4CCC4)c(N)c23)c1 [Example 64],< 2.5
2,COCC[S@@+]([O-])c1sc2nc(-c3cnc(N)nc3)cc(C(F)(F)F)c2c1N [Example 202],< 2.5
3,COCC[S+]([O-])c1sc2nc(-c3cnc(N4CC(O)C4)nc3)cc(-c3ccccc3)c2c1N (centres unmarked) [Example 300],2.5 to 10
4,COCCC[S@+]([O-])c1sc2nc(-c3cncnc3)cc(-c3ccncn3)c2c1N [Example 239],≥ 10
5,COCC[S@+]([O-])c1sc2nc(-c3cnc4ncn(C)c4c3)cc(C3CCC3)c2c1N [Example 367],≥ 10
6,COCCC[S+]([O-])c1sc2nc(-c3ccnnc3)cc(-c3ccccc3)c2c1N (centres unmarked) [Example 209],< 2.5
7,COCCC[S+]([O-])c1sc2nc(-c3cnn(CCO)c3)cc(-c3ccccc3)c2c1N (centres unmarked) [Example 273],< 2.5
8,Nc1c([S+]([O-])C2CCC2)sc2nc(-c3cncnc3)cc(-c3ccc(C4COC4)cc3)c12 (centres unmarked) [Example 114],< 2.5
9,COCCC[S+]([O-])c1sc2nc(-c3cccnc3)cc(C(F)(F)F)c2c1N (centres unmarked) [Example 56],< 2.5
10,COCCC[S+]([O-])c1sc2nc(-c3cncnc3)cc(-c3ncccn3)c2c1N (centres unmarked) [Example 91],< 2.5
11,Nc1c([S+]([O-])C2CCC2)sc2nc(-c3cnc4nn(CCO)cc4c3)cc(C3CCC3)c12 (centres unmarked) [Example 348],2.5 to 10
12,COCCC[S@@+]([O-])c1sc2nc(-c3cncnc3)cc(C3CC3)c2c1N [Example 153],< 2.5
13,Cn1nccc1-c1cc(-c2cnc3nccn3c2)nc2sc([S+]([O-])C3CCC3)c(N)c12 (centres unmarked) [Example 320],< 2.5
14,Nc1c([S+]([O-])C2CCC2)sc2nc(-c3cnc(NCC(=O)O)nc3)cc(-c3ccccc3)c12 (centres unmarked) [Example 155],< 2.5
15,COCC[S+]([O-])c1sc2nc(-c3cnc4c(c3)CN(C)C4=O)cc(-c3ccccc3)c2c1N (centres unmarked) [Example 384],< 2.5
16,COCC[S+]([O-])c1sc2nc(-c3cnc4nn(C)cc4c3)cc(-c3ccnn3C)c2c1N (centres unmarked) [Example 334],< 2.5
17,CS(=O)(=O)Nc1ncc(-c2cc(-c3ccccc3)c3c(N)c([S@@+]([O-])C4CCC4)sc3n2)cn1 [Example 69],≥ 10
18,CNc1ncc(-c2cc(-c3ccnn3C)c3c(N)c([S@@+]([O-])CCOC)sc3n2)cn1 [Example 332],≥ 10
19,CN(C)C(=O)c1ncc(-c2cc(-c3ccccc3)c3c(N)c([S+]([O-])C4CCC4)sc3n2)cn1 (centres unmarked) [Example 61],2.5 to 10
20,COCC[S@+]([O-])c1sc2nc(-c3cnc4nn(C)cc4c3)nc(-c3ccccc3)c2c1N [Example 434],≥ 10

# The next lines start with the values.
row,IC50 [nM],SMILES
1,< 2.5,COCC[S+]([O-])c1sc2nc(-c3cnc4ncnn4c3)cc(C3CCC3)c2c1N (centres unmarked) [Example 400]
2,< 2.5,Nc1c([S+]([O-])C2CCC2)sc2nc(-c3cnc(N4CC(O)C4)nc3)cc(C3CC3)c12 (centres unmarked) [Example 250]
3,< 2.5,COCC[S@@+]([O-])c1sc2nc(-c3cnc4c(c3)CNC4=O)cc(-c3ccccc3)c2c1N [Example 242]
4,< 2.5,COCC[S@@+]([O-])c1sc2nc(-c3cnc4c(c3)ncn4C)cc(C3CCC3)c2c1N [Example 374]
5,< 2.5,COCCC[S+]([O-])c1sc2nc(-c3cnc(N)nc3)cc(-c3ccc(F)cc3)c2c1N (centres unmarked) [Example 46]
6,< 2.5,CN(C)c1cc(-c2cc(-c3cnc(N)nc3)nc3sc([S@+]([O-])C4CCC4)c(N)c23)n(C)n1 [Example 415]
7,< 2.5,COCC[S@@+]([O-])c1sc2nc(-c3cncnc3)cc(-c3ncccn3)c2c1N [Example 230]
8,≥ 10,COCC[S@+]([O-])c1sc2nc(-c3ccnnc3)cc(-c3ccccc3)c2c1N [Example 212]
9,< 2.5,Nc1c([S@+]([O-])C2CCC2)sc2nc(-c3ccc(NCCO)nc3)cc(-c3ccccn3)c12 [Example 97]
10,< 2.5,Cn1cc(-c2cc(-c3cncnc3)nc3sc([S+]([O-])C4CCC4)c(N)c23)cn1 (centres unmarked) [Example 282]
11,< 2.5,Nc1c([S+]([O-])C2CCC2)sc2nc(-c3cnc(NCCO)nc3)cc(C3CC3)c12 (centres unmarked) [Example 145]
12,2.5 to 10,COCCC[S+]([O-])c1sc2nc(-c3cnc(N(C)CCO)nc3)cc(C(F)(F)F)c2c1N (centres unmarked) [Example 187]
13,< 2.5,COCC[S+]([O-])c1sc2nc(-c3ccc4c(=O)[nH]ccc4c3)cc(-c3ccnn3C)c2c1N (centres unmarked) [Example 317]
14,< 2.5,COCCC[S@@+]([O-])c1sc2nc(-c3cnc(N)nc3)cc(C3CC3)c2c1N [Example 146]
15,≥ 10,COCC[S@+]([O-])c1sc2nc(-c3cnc4nncn4c3)cc(-c3ccccc3)c2c1N [Example 360]
16,< 2.5,COCCC[S+]([O-])c1sc2nc(-c3cncnc3)cc(-c3ccnc(C)c3)c2c1N (centres unmarked) [Example 119]
17,2.5 to 10,COCCC[S+]([O-])c1sc2nc(-c3cccnc3)nc(C3CC3)c2c1N (centres unmarked) [Example 191]

row,IC50 [nM],SMILES
1,< 2.5,COCC[S+]([O-])c1sc2nc(-c3cnc(C)nc3)cc(C(F)(F)F)c2c1N (centres unmarked) [Example 137]
2,≥ 10,COCCn1ccc(-c2cc(-c3cnc4nn(C)cc4c3)nc3sc([S@@+]([O-])CCOC)c(N)c23)n1 [Example 388]
3,< 2.5,COCC[S+]([O-])c1sc2nc(-c3cncnc3)cc(C3CCC3)c2c1N (centres unmarked) [Example 251]
4,< 2.5,COCCC[S+]([O-])c1sc2nc(-c3cnc4nn(CCO)cc4c3)cc(-c3ccccc3)c2c1N (centres unmarked) [Example 269]
5,≥ 10,COCC[S@+]([O-])c1sc2nc(-c3cnc4c(c3)ncn4C)cc(C3CCC3)c2c1N [Example 375]
6,2.5 to 10,COCCC[S+]([O-])c1sc2nc(-c3cnc(NCCO)nc3)cc(C(F)(F)F)c2c1N (centres unmarked) [Example 139]
7,< 2.5,Nc1c([S+]([O-])C2CCC2)sc2nc(-c3cnc(NCCO)nc3)cc(C3COC3)c12 (centres unmarked) [Example 222]
8,< 2.5,Cn1cnc2ncc(-c3cc(C4CC4)c4c(N)c([S+]([O-])C5CCC5)sc4n3)cc21 (centres unmarked) [Example 407]
9,< 2.5,COCC[S@@+]([O-])c1sc2nc(-c3cnc4nn(C)cc4c3)cc(C(F)(F)F)c2c1N [Example 418]
10,< 2.5,COCC[S+]([O-])c1sc2nc(-c3cnc4c(c3)nnn4C)cc(-c3ccnn3C)c2c1N (centres unmarked) [Example 324]
11,< 2.5,Cn1ncc(-c2cc(C3CCC3)c3c(N)c([S+]([O-])C4CCC4)sc3n2)cc1=O (centres unmarked) [Example 398]
12,< 2.5,Nc1c([S@+]([O-])C2CCC2)sc2nc(-c3cnc(NCCO)nc3)cc(-c3cccnc3)c12 (stereo in doubt) [Example 103]
13,< 2.5,Cn1cc(-c2cc(-c3ccc(OCCO)cc3)c3c(N)c([S+]([O-])C4CCC4)sc3n2)cn1 (centres unmarked) [Example 412]
14,< 2.5,CS(=O)(=O)Nc1ncc(-c2cc(-c3cccnc3)c3c(N)c([S+]([O-])C4CCC4)sc3n2)cn1 (centres unmarked) [Example 93]
15,< 2.5,COCC[S+]([O-])c1sc2nc(-c3cncnc3)cc(-c3ccnc(C)c3)c2c1N (centres unmarked) [Example 127]
16,< 2.5,COCCC[S+]([O-])c1sc2nc(-c3cnc(N)nc3)cc(C(F)(F)F)c2c1N (centres unmarked) [Example 133]

# — patent US12336982B2 (RODEO THERAPEUTICS CORPORATION, priority 2018, dated 2025)
